Assay results as given in ChEMBL document CHEMBL1201862, “PubChem BioAssay data set” (2004).
Activity calls are given as the source filed them.

How the values were obtained:
Caspase-6 = target: T1, Caspase-6 (Homo sapiens, UniProt P55212); assay: human caspase-6 inhibitors, dose response, biochemical, VEID-R110 fluorescence, cherry-pick (AID 720632)
T1 sequence (P55212 whole entry): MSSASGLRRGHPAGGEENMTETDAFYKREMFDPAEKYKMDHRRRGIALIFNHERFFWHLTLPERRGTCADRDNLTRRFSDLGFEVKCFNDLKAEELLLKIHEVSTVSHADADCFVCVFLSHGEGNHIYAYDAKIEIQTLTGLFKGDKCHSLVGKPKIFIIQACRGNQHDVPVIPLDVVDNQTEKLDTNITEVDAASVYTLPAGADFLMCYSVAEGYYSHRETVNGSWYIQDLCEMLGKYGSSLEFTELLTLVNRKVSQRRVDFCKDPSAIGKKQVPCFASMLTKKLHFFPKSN

[1] = target: T2, Heat shock factor protein 1 (Mus musculus, UniProt P38532); assay: HSF1 potentiators in luciferase reporter cells, confirmation, cell-based, NIH3T3, luminescence, dose retest (AID 435004); type: functional;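 further: stress induced by proteasome inhibitor MG132 added 30 min after compound; luciferase reporter driven by HSF1 response element in NIH3T3 cells; actives raise luminescence as potentiators of the MG132 stress response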
T2 sequence (P38532 whole entry): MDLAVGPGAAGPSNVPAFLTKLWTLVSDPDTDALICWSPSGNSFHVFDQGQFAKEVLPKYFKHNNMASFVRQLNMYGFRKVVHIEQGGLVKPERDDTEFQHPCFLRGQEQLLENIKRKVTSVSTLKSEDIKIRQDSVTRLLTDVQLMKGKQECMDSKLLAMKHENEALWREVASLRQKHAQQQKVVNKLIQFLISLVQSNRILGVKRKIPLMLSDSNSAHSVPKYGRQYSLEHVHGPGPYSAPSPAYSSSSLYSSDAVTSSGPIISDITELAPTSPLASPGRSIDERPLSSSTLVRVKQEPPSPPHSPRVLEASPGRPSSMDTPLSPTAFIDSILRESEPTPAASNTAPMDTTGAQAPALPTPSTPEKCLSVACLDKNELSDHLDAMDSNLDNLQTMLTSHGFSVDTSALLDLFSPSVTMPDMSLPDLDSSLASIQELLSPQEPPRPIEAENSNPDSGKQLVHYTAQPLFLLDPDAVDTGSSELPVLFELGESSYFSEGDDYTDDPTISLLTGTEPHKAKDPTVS

[2] = Luminescence-based cell-based high throughput dose response assay to identify activators of the DAF-12 from the parasite S. stercoralis (ssDAF-12).; type: functional
[3] = target: T3, Oxysterols receptor LXR-beta (Homo sapiens, UniProt P55055); assay: LXR agonists, Gal4 luciferase reporter, dose response, counter-screen for ssDAF-12 agonist project, cell-based, luminescence, HEK293, S. stercoralis campaign (AID 720737); type: functional; details: read-out: IC50 (the source's name)
T3 sequence (P55055 whole entry): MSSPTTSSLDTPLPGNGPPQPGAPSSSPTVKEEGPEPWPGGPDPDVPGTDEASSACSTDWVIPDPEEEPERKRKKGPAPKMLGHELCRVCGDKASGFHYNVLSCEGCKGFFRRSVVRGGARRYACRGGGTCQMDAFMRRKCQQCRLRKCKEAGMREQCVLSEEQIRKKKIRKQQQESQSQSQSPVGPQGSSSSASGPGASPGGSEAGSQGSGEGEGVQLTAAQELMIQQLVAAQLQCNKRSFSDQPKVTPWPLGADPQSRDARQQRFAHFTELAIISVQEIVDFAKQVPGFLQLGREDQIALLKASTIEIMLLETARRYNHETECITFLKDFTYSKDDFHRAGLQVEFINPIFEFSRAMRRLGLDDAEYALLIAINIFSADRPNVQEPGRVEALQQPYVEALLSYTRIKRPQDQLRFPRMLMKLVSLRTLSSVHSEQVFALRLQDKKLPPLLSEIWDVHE

[4] = target: Disintegrin and metalloproteinase domain-containing protein 17 (Homo sapiens, UniProt P78536); assay: exosite inhibitors of ADAM17, dose response, biochemical (AID 743260)
Chain of Disintegrin and metalloproteinase domain-containing protein 17 (P78536 whole entry, the tested form may be a part): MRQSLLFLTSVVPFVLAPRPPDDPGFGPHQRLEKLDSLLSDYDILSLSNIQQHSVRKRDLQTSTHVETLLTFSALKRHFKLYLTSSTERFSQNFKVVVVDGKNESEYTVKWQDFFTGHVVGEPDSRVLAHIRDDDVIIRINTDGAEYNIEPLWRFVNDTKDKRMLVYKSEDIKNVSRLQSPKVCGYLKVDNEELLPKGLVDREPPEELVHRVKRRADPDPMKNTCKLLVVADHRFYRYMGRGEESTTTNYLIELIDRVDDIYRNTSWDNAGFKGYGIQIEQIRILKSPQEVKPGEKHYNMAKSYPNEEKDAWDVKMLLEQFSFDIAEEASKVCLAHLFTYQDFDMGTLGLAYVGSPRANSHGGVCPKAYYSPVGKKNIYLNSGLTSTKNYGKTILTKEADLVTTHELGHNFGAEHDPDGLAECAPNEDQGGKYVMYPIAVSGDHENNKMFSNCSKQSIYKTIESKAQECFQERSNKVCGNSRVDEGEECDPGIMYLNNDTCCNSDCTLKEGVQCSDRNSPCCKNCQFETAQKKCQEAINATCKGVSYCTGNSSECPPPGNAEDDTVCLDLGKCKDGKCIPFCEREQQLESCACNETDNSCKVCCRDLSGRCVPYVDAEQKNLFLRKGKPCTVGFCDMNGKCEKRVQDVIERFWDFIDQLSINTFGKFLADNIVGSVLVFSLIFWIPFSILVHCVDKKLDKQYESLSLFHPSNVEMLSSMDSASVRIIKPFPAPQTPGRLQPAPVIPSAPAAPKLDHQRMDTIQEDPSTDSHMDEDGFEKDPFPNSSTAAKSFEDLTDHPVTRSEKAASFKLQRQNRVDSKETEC

[5] = ADAM10 protease inhibitors, dose response, selectivity assay for ADAM17 exosite inhibitor project, biochemical, FRET peptide substrate, recombinant human ADAM10 (AID 743259);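 further: ADAM10 enzyme cleaving a FRET peptide substrate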
[6] = target: T3, Oxysterols receptor LXR-beta; type: functional, cell-based
Caspase-3 = target: T4, Caspase-3 (Homo sapiens, UniProt P42574); type: functional;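 further: Dose-response selectivity test against caspase-3 for candidate inhibitors of sentrin-specific proteases (SENPs)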
T4 sequence (P42574 whole entry): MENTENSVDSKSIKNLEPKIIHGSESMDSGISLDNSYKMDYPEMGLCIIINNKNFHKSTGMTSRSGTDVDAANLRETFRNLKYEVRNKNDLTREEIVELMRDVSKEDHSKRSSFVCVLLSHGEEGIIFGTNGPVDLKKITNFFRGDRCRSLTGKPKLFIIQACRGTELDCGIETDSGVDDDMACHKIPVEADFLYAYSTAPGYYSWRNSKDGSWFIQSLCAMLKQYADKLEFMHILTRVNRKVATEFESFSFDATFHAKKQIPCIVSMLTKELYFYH

[7] = target: T5, Sentrin-specific protease 7 (Homo sapiens, UniProt Q9BQF6); type: functional;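 further: Luminescence-based dose-response confirmation of ultra-high-throughput screening hits, measuring inhibition of SENP7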
T5 sequence (Q9BQF6 whole entry): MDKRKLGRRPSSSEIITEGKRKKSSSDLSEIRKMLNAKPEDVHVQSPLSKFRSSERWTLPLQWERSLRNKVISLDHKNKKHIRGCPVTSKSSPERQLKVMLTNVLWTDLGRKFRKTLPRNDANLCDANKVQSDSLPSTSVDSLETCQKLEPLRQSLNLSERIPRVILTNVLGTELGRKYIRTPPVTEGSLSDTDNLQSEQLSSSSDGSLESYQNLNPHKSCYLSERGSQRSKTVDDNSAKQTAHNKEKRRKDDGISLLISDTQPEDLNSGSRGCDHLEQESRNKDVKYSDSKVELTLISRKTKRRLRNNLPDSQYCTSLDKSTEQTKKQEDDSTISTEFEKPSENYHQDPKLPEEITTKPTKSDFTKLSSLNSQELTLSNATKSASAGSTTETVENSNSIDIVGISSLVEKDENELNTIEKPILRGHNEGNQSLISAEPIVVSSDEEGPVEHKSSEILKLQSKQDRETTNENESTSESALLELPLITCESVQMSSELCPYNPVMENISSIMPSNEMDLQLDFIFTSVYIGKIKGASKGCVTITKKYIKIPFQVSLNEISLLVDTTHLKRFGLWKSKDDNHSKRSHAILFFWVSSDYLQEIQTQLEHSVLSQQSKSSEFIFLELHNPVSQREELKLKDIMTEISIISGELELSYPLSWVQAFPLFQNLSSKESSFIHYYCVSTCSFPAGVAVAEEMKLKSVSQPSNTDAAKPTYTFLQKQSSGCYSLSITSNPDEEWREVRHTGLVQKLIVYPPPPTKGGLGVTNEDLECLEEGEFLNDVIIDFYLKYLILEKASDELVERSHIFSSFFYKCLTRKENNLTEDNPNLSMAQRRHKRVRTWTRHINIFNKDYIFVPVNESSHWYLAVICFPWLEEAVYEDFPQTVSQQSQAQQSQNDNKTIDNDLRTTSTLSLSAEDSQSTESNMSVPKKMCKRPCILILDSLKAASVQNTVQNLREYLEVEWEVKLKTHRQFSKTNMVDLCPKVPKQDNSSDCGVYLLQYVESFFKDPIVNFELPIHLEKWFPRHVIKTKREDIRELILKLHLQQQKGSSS

[8] = target: T6, Sentrin-specific protease 6 (Homo sapiens, UniProt Q9GZR1); type: functional;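 further: Luminescence-based dose-response confirmatory assay of SENP6 inhibition, following up an ultra-high-throughput screen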
T6 sequence (Q9GZR1 whole entry): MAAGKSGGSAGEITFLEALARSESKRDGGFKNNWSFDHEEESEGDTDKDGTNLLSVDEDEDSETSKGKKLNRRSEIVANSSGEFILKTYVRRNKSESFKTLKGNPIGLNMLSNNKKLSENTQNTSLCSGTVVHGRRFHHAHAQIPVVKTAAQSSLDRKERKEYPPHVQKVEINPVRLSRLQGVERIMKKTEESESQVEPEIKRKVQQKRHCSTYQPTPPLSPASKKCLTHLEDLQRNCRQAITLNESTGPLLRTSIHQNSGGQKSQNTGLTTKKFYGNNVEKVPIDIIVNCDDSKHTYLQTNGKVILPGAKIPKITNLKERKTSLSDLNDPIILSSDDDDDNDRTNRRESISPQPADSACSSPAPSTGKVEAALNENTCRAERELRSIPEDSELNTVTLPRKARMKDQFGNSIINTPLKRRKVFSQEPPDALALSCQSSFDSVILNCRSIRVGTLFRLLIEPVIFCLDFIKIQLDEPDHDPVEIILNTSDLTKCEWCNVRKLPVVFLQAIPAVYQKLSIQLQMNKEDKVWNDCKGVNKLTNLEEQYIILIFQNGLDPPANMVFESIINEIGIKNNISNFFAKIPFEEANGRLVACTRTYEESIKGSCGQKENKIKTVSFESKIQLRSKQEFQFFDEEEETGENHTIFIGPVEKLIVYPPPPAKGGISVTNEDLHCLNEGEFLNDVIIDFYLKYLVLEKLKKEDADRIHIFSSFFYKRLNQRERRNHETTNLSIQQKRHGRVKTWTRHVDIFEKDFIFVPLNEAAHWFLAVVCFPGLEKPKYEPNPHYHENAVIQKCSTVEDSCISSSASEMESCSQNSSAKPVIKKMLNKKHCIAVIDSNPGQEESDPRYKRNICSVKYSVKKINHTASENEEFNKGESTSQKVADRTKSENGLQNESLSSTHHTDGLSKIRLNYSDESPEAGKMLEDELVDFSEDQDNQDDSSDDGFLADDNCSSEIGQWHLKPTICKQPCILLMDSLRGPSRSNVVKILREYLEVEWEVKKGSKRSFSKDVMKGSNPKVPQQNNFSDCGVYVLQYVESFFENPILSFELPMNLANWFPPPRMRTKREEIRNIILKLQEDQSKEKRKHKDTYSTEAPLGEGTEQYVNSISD

[9] = target: T7, Sentrin-specific protease 8 (Homo sapiens, UniProt Q96LD8); type: functional;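 further: luminescence read-out of SENP8 inhibition, dose-response confirmation following an ultra-high-throughput screen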
T7 sequence (Q96LD8 whole entry): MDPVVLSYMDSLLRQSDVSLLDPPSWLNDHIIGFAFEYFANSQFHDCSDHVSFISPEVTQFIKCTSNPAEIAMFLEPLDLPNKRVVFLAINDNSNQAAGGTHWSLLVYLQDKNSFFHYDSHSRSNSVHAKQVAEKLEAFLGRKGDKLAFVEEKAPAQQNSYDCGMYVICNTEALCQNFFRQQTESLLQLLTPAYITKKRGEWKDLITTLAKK

[10] = A549 cell cytotoxicity, dose response, cytotoxicity control, plate reader, cherry-pick, antagonist series (AID 743412); type: functional, cell-based
[11] = LGR2 antagonists, dose response, cell-based, HEK293, CRE-luciferase reporter, cherry pick, set 2 (AID 743343); type: functional;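 further: transfected cells were stimulated with diluted bursicon conditioned medium after compound addition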
[12] = MC4R antagonists, dose response, counter-screen for LGR2 antagonist project, cell-based, plate reader, cherry pick (AID 743444); type: functional;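 further: transfected HEK 293 cells stimulated with alpha-MSH peptide; potency of inhibitors of the alpha-MSH evoked signal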
[13] = test system: Streptococcus sp. 'group A'; assay: growth inhibition of control SK(-) GAS strain, dose response, counter-screen for streptokinase expression inhibitor project, luminescence, kanamycin, BacTiterGlo, confirmation (AID 1900); type: functional, organism-based
Streptokinase A = target: T8, Streptokinase A (Streptococcus pyogenes serotype M1, UniProt P10520); assay: S. pyogenes streptokinase expression inhibitors, potency, dose response, plasminogen activation absorbance, OD405 (AID 1914); type: functional, Streptococcus pyogenes M1 GAS;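 further: secreted streptokinase activity via plasminogen activation per viability signal from cell pellet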
T8 sequence (P10520 whole entry): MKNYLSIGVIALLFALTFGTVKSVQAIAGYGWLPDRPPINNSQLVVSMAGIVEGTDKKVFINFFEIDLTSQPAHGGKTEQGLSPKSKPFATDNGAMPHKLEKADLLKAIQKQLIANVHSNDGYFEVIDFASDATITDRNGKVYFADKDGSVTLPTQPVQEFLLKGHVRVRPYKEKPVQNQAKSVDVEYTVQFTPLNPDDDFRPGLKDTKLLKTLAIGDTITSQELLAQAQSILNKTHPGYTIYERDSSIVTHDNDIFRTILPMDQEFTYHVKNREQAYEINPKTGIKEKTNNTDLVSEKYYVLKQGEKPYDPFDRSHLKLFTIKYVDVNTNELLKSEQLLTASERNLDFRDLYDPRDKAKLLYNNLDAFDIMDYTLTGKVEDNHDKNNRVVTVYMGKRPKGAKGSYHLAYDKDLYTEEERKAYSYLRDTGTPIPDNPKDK

Streptococcus = assay: Group A Streptococcus viability loss, dose response, counter-screen for streptokinase expression inhibitor project, luminescence, BacTiterGlo (AID 1915); type: functional, organism-based;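 further: potency for reduction of bacterial viability or growth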
[14] = human group III sPLA2 inhibitors, dose response, biochemical, QFRET, IC50 (AID 743457);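 further: green fluorescence rise as the enzyme cleaves BODIPY PC-A2 in liposomes; potency for inhibition of the enzyme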

COc1cc(-c2noc(C)c2/C=C/c2ccc(C(=O)O)cc2)cc(OC)c1OC
AC50 (Caspase-6): 23.2 µM (active)

O=C(Nc1ccccn1)c1ccc2ccccc2n1
EC50 [1]: > 260 µM (inactive)
IC50 [2]: > 67.5 µM (inactive)
EC50 [3]: > 67.5 µM (inactive)

Cc1nc2ccc(S(=O)(=O)NCC(=O)NCc3ccc4c(c3)OCO4)cc2s1
IC50 [4]: > 69.5 µM (inactive)
IC50 [5]: > 69.5 µM (inactive)

Nc1c(Br)cc2oc(-c3ccccc3)nc2c1Br
EC50 [6]: > 67.5 µM (inactive)
EC50 (cells): > 67.5 µM (inactive)

Cc1ccc(-c2cc(-c3ccccc3)no2)cc1
IC50 (Caspase-3): 21.7 µM (active)
IC50 [7]: 14.3 µM (active)
IC50 [8]: 18.6 µM (active)
IC50 [9]: 23.7 µM (active)
EC50 [6]: > 67.5 µM (inactive)
EC50 (cells): > 67.5 µM (inactive)

Cc1ccc(C(=O)Nc2ccc3c(c2)OCO3)cc1
IC50 [2]: > 67.5 µM (inactive)
EC50 [3]: > 67.5 µM (inactive)

CNCC(O)Cn1c2c(c3ccccc31)CCCC2 (stereo not given)
IC50 [2]: > 67.6 µM (inactive)
EC50 [3]: > 67.6 µM (inactive)

O=C(CN1C(=O)c2ccccc2S1(=O)=O)Nc1cc(S(=O)(=O)N2CCCCC2)ccc1Cl
IC50 [4]: > 69.5 µM (inactive)
IC50 [5]: > 69.5 µM (inactive)

CC(C)(C)[S+]([O-])N1Cc2cc(C(=O)NCC(F)(F)F)nc(-c3cccc(-c4cccc(F)c4)c3)c2[C@H]1CCO (stereo not given in full)
IC50 [4]: > 69.5 µM (inactive)
IC50 [5]: > 7.72 µM (active)

Cc1ccccc1-c1ccc([C@H]2[C@@H](CO)N3CCCCN(S(=O)(=O)c4ccc(F)cc4)C[C@@H]23)cc1
AC50 [10]: 19.8 µM (active)
AC50 [11]: 9.92 µM (active)
AC50 [12]: 8.3 µM (active)

NNC(=O)/C(=N/Nc1ccccc1)S(=O)(=O)c1ccc(Cl)cc1
EC50 [13]: 6.91 µM (active)
EC50 (Streptokinase A): > 150 µM (not active)
EC50 (Streptococcus): > 150 µM (not active)
IC50 [14]: 47.3 µM (inactive)

CCc1nnc(N/N=C/c2cc(C)c(C)cc2C)n1N
AC50 (Caspase-6): 39.8 µM (active)
